ChEMBL document CHEMBL3885881, “DrugMatrix”

Species: Rattus norvegicus
Test: DrugMatrix - Regimen: Daily Repeat
Format: toxicity, organism-based, Sprague-Dawley
Set-up: regimen Daily Repeat, gender Male, age 6-8 weeks
Details: in vivo, po, route oral GAVAGE, vehicle 100 % WATER; for ABSOLUTE BASOPHIL / ABSOLUTE EOSINOPHIL / ABSOLUTE LYMPHOCYTE / ABSOLUTE MONOCYTE / ABSOLUTE SEGMENTED NEUTROPHIL / BASOPHIL / EOSINOPHIL / ERYTHROCYTE COUNT / HEMATOCRIT / HEMOGLOBIN / LEUKOCYTE COUNT / LYMPHOCYTE / MEAN CORPUSCULAR HEMOGLOBIN / MEAN CORPUSCULAR HEMOGLOBIN CONCENTRATION / MEAN CORPUSCULAR VOLUME / MONOCYTE / NEUTROPHIL / NUCLEATED RED BLOOD CELLS / PLATELET COUNT: tissue Blood; for ALANINE AMINOTRANSFERASE / ALBUMIN / ALKALINE PHOSPHATASE / ASPARTATE AMINOTRANSFERASE / BLOOD UREA NITROGEN / CARBON DIOXIDE / CHLORIDE / CHOLESTEROL / CREATINE PHOSPHOKINASE / CREATININE / GLUCOSE / LACTATE DEHYDROGENASE / LIPASE / PHOSPHORUS / POTASSIUM / SODIUM / TOTAL BILIRUBIN / TOTAL PROTEIN / URIC ACID: tissue Plasma
[1] = 50 mg/kg, 120 h, dose level Low, time 5 day
[2] = 1500 mg/kg, 72 h, dose level High, time 3 day
[3] = 1500 mg/kg, 120 h, dose level High, time 5 day

For Cc1ncc([N+](=O)[O-])n1CCO [METRONIDAZOLE], the “ABSOLUTE BASOPHIL” value [1] was 0 CELLS/uL, the “ABSOLUTE EOSINOPHIL” value [1] was 0 CELLS/uL and the “ABSOLUTE LYMPHOCYTE” value [1] was 11707 CELLS/uL. The “ABSOLUTE MONOCYTE” value [1] was 0 CELLS/uL, the “ABSOLUTE SEGMENTED NEUTROPHIL” value [1] was 459.67 CELLS/uL and the BASOPHIL [1] was 0%. For the same molecule, the EOSINOPHIL [1] was 0%, the “ERYTHROCYTE COUNT” value [1] was 6 x10E6/uL and the HEMATOCRIT [1] was 36.43%. For the same molecule, the HEMOGLOBIN [1] was 13.8 G/DL, the “LEUKOCYTE COUNT” value [1] was 12.17 x10E3/uL and the LYMPHOCYTE [1] was 96.33%. For the same molecule, the “MEAN CORPUSCULAR HEMOGLOBIN” value [1] was 23.03 pg, the “MEAN CORPUSCULAR HEMOGLOBIN CONCENTRATION” value [1] was 37.87 G/DL and the “MEAN CORPUSCULAR VOLUME” value [1] was 60.9 fL. For the same molecule, the MONOCYTE [1] was 0%, the NEUTROPHIL [1] was 3.67% and the “NUCLEATED RED BLOOD CELLS” value [1] was 0.33 /100WBC. For the same molecule, the “PLATELET COUNT” value [1] was 986 x10E3/uL, the “ALANINE AMINOTRANSFERASE” value [1] was 61 u/L and the ALBUMIN [1] was 4.07 G/DL. For the same molecule, the “ALKALINE PHOSPHATASE” value [1] was 338 u/L, the “ASPARTATE AMINOTRANSFERASE” value [1] was 108.33 u/L and the “BLOOD UREA NITROGEN” value [1] was 13.67 mg/dL. The “CARBON DIOXIDE” value [1] was 30.67 mmol/L, the CHLORIDE [1] was 100.33 MEQ/L and the CHOLESTEROL [1] was 67 mg/dL. For the same molecule, the “CREATINE PHOSPHOKINASE” value [1] was 1022 u/L, the CREATININE [1] was 0.16 mg/dL and the GLUCOSE [1] was 151.33 mg/dL. For the same molecule, the “LACTATE DEHYDROGENASE” value [1] was 207.67 u/L, the LIPASE [1] was 10.67 u/L and the PHOSPHORUS [1] was 11.73 mg/dL. The POTASSIUM [1] was 5.65 MEQ/L, the SODIUM [1] was 145.1 MEQ/L and the “TOTAL BILIRUBIN” value [1] was 0.13 mg/dL. For the same molecule, the “TOTAL PROTEIN” value [1] was 6.17 G/DL, the “URIC ACID” value [1] was 1 mg/dL and the “ABSOLUTE BASOPHIL” value [2] was 0 CELLS/uL. For the same molecule, the “ABSOLUTE EOSINOPHIL” value [2] was 49.33 CELLS/uL, the “ABSOLUTE LYMPHOCYTE” value [2] was 11170.67 CELLS/uL and the “ABSOLUTE MONOCYTE” value [2] was 122.67 CELLS/uL. The “ABSOLUTE SEGMENTED NEUTROPHIL” value [2] was 924 CELLS/uL, the BASOPHIL [2] was 0% and the EOSINOPHIL [2] was 0.33%. The “ERYTHROCYTE COUNT” value [2] was 5.75 x10E6/uL, the HEMATOCRIT [2] was 36.7% and the HEMOGLOBIN [2] was 14.07 G/DL. For the same molecule, the “LEUKOCYTE COUNT” value [2] was 12.27 x10E3/uL, the LYMPHOCYTE [2] was 91.33% and the “MEAN CORPUSCULAR HEMOGLOBIN” value [2] was 24.47 pg. For the same molecule, the “MEAN CORPUSCULAR HEMOGLOBIN CONCENTRATION” value [2] was 38.33 G/DL, the “MEAN CORPUSCULAR VOLUME” value [2] was 63.8 fL and the MONOCYTE [2] was 1%. The NEUTROPHIL [2] was 7.33%, the “NUCLEATED RED BLOOD CELLS” value [2] was 0 /100WBC and the “PLATELET COUNT” value [2] was 1295.67 x10E3/uL. The “ALANINE AMINOTRANSFERASE” value [2] was 71 u/L, the ALBUMIN [2] was 4.03 G/DL and the “ALKALINE PHOSPHATASE” value [2] was 332 u/L. For the same molecule, the “ASPARTATE AMINOTRANSFERASE” value [2] was 84.33 u/L, the “BLOOD UREA NITROGEN” value [2] was 15 mg/dL and the “CARBON DIOXIDE” value [2] was 32.33 mmol/L. The CHLORIDE [2] was 102 MEQ/L, the CHOLESTEROL [2] was 87 mg/dL and the “CREATINE PHOSPHOKINASE” value [2] was 331.67 u/L. For the same molecule, the CREATININE [2] was 0.23 mg/dL, the GLUCOSE [2] was 134.67 mg/dL and the “LACTATE DEHYDROGENASE” value [2] was 176.33 u/L. For the same molecule, the LIPASE [2] was 12 u/L, the PHOSPHORUS [2] was 10.83 mg/dL and the POTASSIUM [2] was 5.73 MEQ/L. For the same molecule, the SODIUM [2] was 146.4 MEQ/L, the “TOTAL BILIRUBIN” value [2] was 0.1 mg/dL and the “TOTAL PROTEIN” value [2] was 5.9 G/DL. The “URIC ACID” value [2] was 0.4 mg/dL, the “ABSOLUTE BASOPHIL” value [3] was 0 CELLS/uL and the “ABSOLUTE EOSINOPHIL” value [3] was 0 CELLS/uL. The “ABSOLUTE LYMPHOCYTE” value [3] was 10466.67 CELLS/uL, the “ABSOLUTE MONOCYTE” value [3] was 94 CELLS/uL and the “ABSOLUTE SEGMENTED NEUTROPHIL” value [3] was 906 CELLS/uL. For the same molecule, the BASOPHIL [3] was 0%, the EOSINOPHIL [3] was 0% and the “ERYTHROCYTE COUNT” value [3] was 6.09 x10E6/uL. The HEMATOCRIT [3] was 39.27%, the HEMOGLOBIN [3] was 15.2 G/DL and the “LEUKOCYTE COUNT” value [3] was 11.47 x10E3/uL. The LYMPHOCYTE [3] was 91.67%, the “MEAN CORPUSCULAR HEMOGLOBIN” value [3] was 25.03 pg and the “MEAN CORPUSCULAR HEMOGLOBIN CONCENTRATION” value [3] was 38.73 G/DL. The “MEAN CORPUSCULAR VOLUME” value [3] was 64.6 fL, the MONOCYTE [3] was 1% and the NEUTROPHIL [3] was 7.33%. For the same molecule, the “NUCLEATED RED BLOOD CELLS” value [3] was 0 /100WBC, the “PLATELET COUNT” value [3] was 962 x10E3/uL and the “ALANINE AMINOTRANSFERASE” value [3] was 79.33 u/L. The ALBUMIN [3] was 4.3 G/DL, the “ALKALINE PHOSPHATASE” value [3] was 365 u/L and the “ASPARTATE AMINOTRANSFERASE” value [3] was 91.67 u/L. For the same molecule, the “BLOOD UREA NITROGEN” value [3] was 17.67 mg/dL, the “CARBON DIOXIDE” value [3] was 32.33 mmol/L and the CHLORIDE [3] was 101.67 MEQ/L. The CHOLESTEROL [3] was 66.33 mg/dL, the “CREATINE PHOSPHOKINASE” value [3] was 679.67 u/L and the CREATININE [3] was 0.18 mg/dL. For the same molecule, the GLUCOSE [3] was 138.33 mg/dL, the “LACTATE DEHYDROGENASE” value [3] was 145.33 u/L and the LIPASE [3] was 11 u/L. For the same molecule, the PHOSPHORUS [3] was 11.17 mg/dL, the POTASSIUM [3] was 6.28 MEQ/L and the SODIUM [3] was 147.87 MEQ/L. For the same molecule, the “TOTAL BILIRUBIN” value [3] was 0.13 mg/dL, the “TOTAL PROTEIN” value [3] was 6.17 G/DL and the “URIC ACID” value [3] was 0.83 mg/dL.
